According to patent publication EP0386076B1, “PHOSPHORYLED DERIVATIVES OF CARDIODILATINE/ANF PEPTIDES” (FORSSMANN, Wolf-Georg, Prof. Dr. med., priority 1987, dated 1993):
Ends that are not written are not given here.

Experiments:
[1] = system: c-AMP-abhängiger Proteinkinase; conditions: peptide as substrate of c-AMP-abhängiger Proteinkinase; read-out: Michaeliskonstante Km; cited from earlier work
[2] = system: Muskelstreifen von Kaninchenaorta; test: Relaxation of norepinephrine-precontracted rabbit aorta muscle strips in an organ bath; design: species or system Neuseeland-Kaninchen
Source text: Muskelstreifen von Kaninchenaorta wurden zunächst mit einer Lösung von Norepinephrin (10⁻⁷ M) kontrahiert. Nachdem sich konstante Bedingungen eingestellt hatten, wurden die Peptide hinzugefügt (Position des Pfeils).
Die Abbildung 6 zeigt die Reaktion von Kaninchenaorta-Muskelstreifen auf die schrittweise Zugabe von nicht phosphoryliertem, phosphoryliertem und danach wieder nicht phosphoryliertem Alpha-hANaP (CDD-28). Die Verbindungen wurden jeweils so zugegeben, daß sie im Untersuchungsbad in einer Endkonzentration von 0,3 x 10⁻⁹ M vorlagen.
Aortae von Neuseeland-Kaninchen wurden präpariert. Die Muskelspannung wurde an Muskelstreifen in einem Organbad, enthaltend physiologische Kochsalzlösung, gemessen. Die Streifen wurden vorkontrahiert mit einer Lösung von 10⁻⁶ M Norepinephrin, danach bei vollständiger Relaxation. Für den Assay wurde eine weitere Kontraktion mit 10⁻⁷ M Norepinephrin ausgelöst. Nachdem konstante Kontraktionsbedingungen erreicht waren, wurden die Peptide appliziert.
Zur Kontrolle wurde nicht phosphoryliertes Alpha-hANaP unter gleichen Bedingungen inkubiert, jedoch ohne Anwesenheit von ATP. Phosphoryliertes und nicht phosphoryliertes Alpha-hANaP wurde zu den vorkontrahierten Kaninchenaorta-Muskelstreifen gegeben, so daß sie in einer Endkonzentration von 0,3 x 10⁻⁹ M vorlagen. […]

Substance	Km [1]	relatives Relaxationsvermögen ([2]; Abbildung 7, phosphorylated versus non-phosphorylated form at corresponding concentration)	Relaxationsaktivität ([2]; Beispiel 6, tested analogously to Beispiel 5, several concentrations)
Arg¹⁰¹-Tyr¹²⁶	0.5 µM		
phosphorylierte CDD-32: CDD-32 (Urodilatin, ANF/CDD-95-126) phosphorylated according to Beispiel 1; Formel I with R = Aminosäuren 95-98 (TAPRSLRRSSCFGGRMDRIGAQSGLGCNSFRY; ends and bridges not checked; also: phosphorylated (phosphate group), site not given here; UniProt P01160 120-151, looked up, fragment)		deutlich geringeres Relaxationsvermögen	deutlich geringere Relaxation
